Results reported in patent US8859574B2 (IRM LLC, priority 2008, dated 2014).

target: T1, IGF-1R Ba/F3 (Homo sapiens, UniProt P08069); assay: Ba/F3 Cell Viability Inhibition Assay (IGF-1R Ba/F3); type: cell-based, murine; details: Tel-TK transformed Ba/F3 cells, 48 hours, Britelite luminescence
T1 construct: fused on or other part: TEL- (or BCR-) IGF-1R in Ba/F3: the kinase part holds the site
Summary of the method: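 A 48 h compound treatment at 37 °C (3750 cells/well) was followed by Britelite luminescence to measure viability. Cells were Ba/F3 pro-B cells, IL-3-independent via TEL-fused IGF-1R kinase transduction. A logistic fit gave IC50 as 50% viability relative to DMSO control.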

T1 sequence (P08069 999-1274 limits assumed): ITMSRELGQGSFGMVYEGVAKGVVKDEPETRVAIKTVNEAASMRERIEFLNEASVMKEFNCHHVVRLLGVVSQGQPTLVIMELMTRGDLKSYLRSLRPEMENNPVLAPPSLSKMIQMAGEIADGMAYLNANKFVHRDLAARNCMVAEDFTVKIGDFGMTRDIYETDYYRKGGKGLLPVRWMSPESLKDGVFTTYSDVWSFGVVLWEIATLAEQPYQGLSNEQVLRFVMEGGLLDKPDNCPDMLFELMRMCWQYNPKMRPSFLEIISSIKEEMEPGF

Row | SMILES | IC50 [nM]
1 | Cc1cc(Nc2nc(Nc3cc(C)c(C4CCN(Cc5cnccn5)CC4)cc3F)ncc2Cl)n[nH]1 [Compound 315, 5-chloro-N2-(2-fluoro-5-methyl-4-(1-(pyrazin-2-ylmethyl)piperidin-4-yl)phenyl)-N4-(5-methyl-1H-pyrazol-3-yl)pyrimidine-2,4-diamine] | 36
2 | Cc1cc(Nc2nc(Nc3cc(C)c(C4CCN(Cc5ccnnc5)CC4)cc3F)ncc2Cl)n[nH]1 [Compound 316, 5-chloro-N2-(2-fluoro-5-methyl-4-(1-(pyridazin-4-ylmethyl)piperidin-4-yl)phenyl)-N4-(5-methyl-1H-pyrazol-3-yl)pyrimidine-2,4-diamine] | 27
3 | Cc1cc(Nc2nc(Nc3cc(C)c(C4CCN(Cc5cncnc5)CC4)cc3C)ncc2Cl)n[nH]1 [Compound 317, 5-chloro-N2-(2,5-dimethyl-4-(1-(pyrimidin-5-ylmethyl)piperidin-4-yl)phenyl)-N4-(5-methyl-1H-pyrazol-3-yl)pyrimidine-2,4-diamine] | 4
4 | Cc1cc(Nc2nc(Nc3cc(C)c(C4CCN(Cc5cnccn5)CC4)cc3C)ncc2Cl)n[nH]1 [Compound 318, 5-chloro-N2-(2,5-dimethyl-4-(1-(pyrazin-2-ylmethyl)piperidin-4-yl)phenyl)-N4-(5-methyl-1H-pyrazol-3-yl)pyrimidine-2,4-diamine] | 10
